Experimental data from patent publication EP2607478A1, “Phenanthroline treated MSC” (Universiteit Twente, priority 2011, dated 2013).

Test system: MSCs
Assay: Whole genome expression analysis (Illumina microarray) of treated MSCs
Type: cell-based, Human
Description: MSCs were seeded in T25 flasks at 5000 cells/cm^2 and allowed to attach overnight in proliferation medium. […] After 48 hours, RNA was isolated as described above. From 500 ng of RNA, cRNA was synthesized using the Illumina TotalPrep RNA amplification Kit (Ambion), according to the manufacturer's protocol and the quality of RNA and cRNA was verified on a Bioanalyzer 2100 (Agilent). Microarrays were performed using Illumina HT-12 v4 expression Beadchips, according to the manufacturer's protocol. Briefly, 750 ng of cRNA was hybridized on the array overnight after which the array was washed and blocked. Then, by addition of streptavidin Cy-3 a fluorescent signal was developed. Arrays were scanned on an Illumina iScan reader and raw intensity values were background corrected in GenomeStudio (Illumina). Further data processing and statistical testing were performed with R and Bioconductor statistical software (www.bioconductor.org), using package lumi. Raw intensity values were transformed using variance stabilization and a quantile normalization was performed. A linear modelling approach with empirical Bayesian methods, as implemented in Limma package (54), was applied for differential expression analysis of the resulting probe-level expression values. A gene list, containing only those genes with an absolute 1.5-fold change between different treatments, was uploaded to Ingenuity Pathway Analysis (IPA) software and used for core analysis. Pathways or networks with a p-value of 0.05 were considered statistically significant.

## CC(=O)N(O)CCCCCNC(=O)CCC(=O)N(O)CCCCCNC(=O)CCC(=O)N(O)CCCCCN [DFO, reference compound]
MSCs treated for two days, 150 µM DFO or 200 µM PHE
  interleukin-8 (Il-8) gene expression: did not affect this gene at all
MSCs treated for two days, 150 µM DFO or 200 µM PHE, relative to basic medium
  expression of HRE-containing genes (metabolism, cell growth and survival, endothelial genes): increased expression
ProbeID ILMN 2113490, DFO versus Bas
  logFC(D142_ DFO - D142_BAS) NTN4: 2,23
ProbeID ILMN_1651496, DFO versus Bas
  logFC(D142_ DFO - D142_BAS) HIST1H2BD: 3,33
ProbeID ILMN_1653292, DFO versus Bas
  logFC(D142_ DFO - D142_BAS) PFKFB4: 3,53
ProbeID ILMN_1653711, DFO versus Bas
  logFC(D142_ DFO - D142_BAS) FZD2: -2,10
ProbeID ILMN_1655796, DFO versus Bas
  logFC(D142_ DFO - D142_BAS): 2,46
ProbeID ILMN_1656057, DFO versus Bas
  logFC(D142_ DFO - D142_BAS) PLAU: -2,69
ProbeID ILMN_1657683, DFO versus Bas
  logFC(D142_ DFO - D142_BAS) C1orf198: -2,30
ProbeID ILMN_1658448, DFO versus Bas
  logFC(D142_ DFO - D142_BAS) KRTAP2-1: 2,71
ProbeID ILMN_1659027, DFO versus Bas
  logFC(D142_ DFO - D142_BAS) SLC2A1: 3,46
ProbeID ILMN_1659047, DFO versus Bas
  logFC(D142_ DFO - D142_BAS) HIST2H2AA3: 2,07
ProbeID ILMN_1659990, DFO versus Bas
  logFC(D142_ DFO - D142_BAS) C7orf68: 3,04
ProbeID ILMN_1660067, DFO versus Bas
  logFC(D142_ DFO - D142_BAS) LOC728285: 2,89
ProbeID ILMN_1660847, DFO versus Bas
  logFC(D142_ DFO - D142_BAS) PFKFB3: 2,48
ProbeID ILMN_1661599, DFO versus Bas
  logFC(D142_ DFO - D142_BAS) DDIT4: 4,37
ProbeID ILMN_1663390, DFO versus Bas
  logFC(D142_ DFO - D142_BAS) CDC20: -3,40
ProbeID ILMN_1663575, DFO versus Bas
  logFC(D142_ DFO - D142_BAS) MGC87042: -2,17
ProbeID ILMN_1664855, DFO versus Bas
  logFC(D142_ DFO - D142_BAS) PPP1R14C: 2,96
ProbeID ILMN_1665510, DFO versus Bas
  logFC(D142_ DFO - D142_BAS) ERRFI1: 2,53
ProbeID ILMN_1667966, DFO versus Bas
  logFC(D142_ DFO - D142_BAS) C1orf24: 2,70
ProbeID ILMN_1670875, DFO versus Bas
  logFC(D142_ DFO - D142_BAS) PPM1D: 2,06
ProbeID ILMN_1671703, DFO versus Bas
  logFC(D142_ DFO - D142_BAS) ACTA2: -2,61
ProbeID ILMN_1672350, DFO versus Bas
  logFC(D142_ DFO - D142_BAS) JAM2: 2,05
ProbeID ILMN_1674243, DFO versus Bas
  logFC(D142_ DFO - D142_BAS) TFRC: 2,31
ProbeID ILMN_1674706, DFO versus Bas
  logFC(D142_ DFO - D142_BAS) MTHFD2: 2,79
ProbeID ILMN_1675947, DFO versus Bas
  logFC(D142_ DFO - D142_BAS) MT3: 3,00
ProbeID ILMN_1676984, DFO versus Bas
  logFC(D142_ DFO - D142_BAS) DDIT3: 3,92
ProbeID ILMN_1678493, DFO versus Bas
  logFC(D142_ DFO - D142_BAS) CHN1: -2,71
ProbeID ILMN_1679041, DFO versus Bas
  logFC(D142_ DFO - D142_BAS) SLC3A2: 2,26
ProbeID ILMN_1679727, DFO versus Bas
  logFC(D142_ DFO - D142_BAS) CLK1: 2,03
ProbeID ILMN_1680139, DFO versus Bas
  logFC(D142_ DFO - D142_BAS) MAFF: 2,48
ProbeID ILMN_1682599, DFO versus Bas
  logFC(D142_ DFO - D142_BAS) GPRC5A: 2,35
ProbeID ILMN_1682717, DFO versus Bas
  logFC(D142_ DFO - D142_BAS) IER3: 2,14
ProbeID ILMN_1683179, DFO versus Bas
  logFC(D142_ DFO - D142_BAS) RRAD: 2,83
ProbeID ILMN_1684158, DFO versus Bas
  logFC(D142_ DFO - D142_BAS) GPT2: 2,16
ProbeID ILMN_1685714, DFO versus Bas
  logFC(D142_ DFO - D142_BAS) INHBB: 2,06
ProbeID ILMN_1686097, DFO versus Bas
  logFC(D142_ DFO - D142_BAS) TOP2A: -2,19
ProbeID ILMN_1689088, DFO versus Bas
  logFC(D142_ DFO - D142_BAS) COLEC12: -3,20
ProbeID ILMN_1689111, DFO versus Bas
  logFC(D142_ DFO - D142_BAS) CXCL12: -2,92
ProbeID ILMN_1690125, DFO versus Bas
  logFC(D142_ DFO - D142_BAS) PDLIM7: -2,43
ProbeID ILMN_1690170, DFO versus Bas
  logFC(D142_ DFO - D142_BAS) CRABP2: -2,06
ProbeID ILMN_1691884, DFO versus Bas
  logFC(D142_ DFO - D142_BAS) STC2: 3,54
ProbeID ILMN_1692938, DFO versus Bas
  logFC(D142_ DFO - D142_BAS) PSAT1: 3,93
ProbeID ILMN_1693334, DFO versus Bas
  logFC(D142_ DFO - D142_BAS) P4HA1: 3,24
ProbeID ILMN_1694075, DFO versus Bas
  logFC(D142_ DFO - D142_BAS) GADD45A: 2,63
ProbeID ILMN_1695658, DFO versus Bas
  logFC(D142_ DFO - D142_BAS) KIF20A: -2,76
ProbeID ILMN_1696537, DFO versus Bas
  logFC(D142_ DFO - D142_BAS) DDIT4L: -2,14
ProbeID ILMN_1699265, DFO versus Bas
  logFC(D142_ DFO - D142_BAS) TNFRSF10B: 2,74
